This note sets out measurements from ChEMBL document CHEMBL3044985, “Novel antitubercular diallyl/dibenzylthiosemicarbazones endowed with high activity toward multi-drug-resistant tuberculosis” (Med Chem Res, 2012).

≈ marks a conversion by molar mass, not a printed value.

Data set [1] has as its system Mycobacterium tuberculosis. Briefly: Antitubercular activity against Mycobacterium tuberculosis H37Rv by NCCLS agar dilution method. Type of data set: functional. A general note: In agar dilution, organisms are placed on agar that contains the substance at set levels.
Data set [2] in a line: Cytotoxicity against Chlorocebus aethiops (African green monkey) Vero cells assessed as cell viability after 72 hr by MTT assay. Type of data set: cell-based. To be noted: chlorocebus sabaeus. (Tetrazolium dyes change colour on reduction, which living cells bring about.)
In data set [3] the test system is Mycobacterium tuberculosis. Briefly: Ratio of ethambutol MIC to compound MIC for Mycobacterium tuberculosis H37Rv. The format is functional.
Data set [4] concerns Mycobacterium tuberculosis. The data set is described as follows: Ratio of ofloxacin MIC to compound MIC for Mycobacterium tuberculosis H37Rv. The format is functional.
The nature of data set [5]: Selectivity index, ratio of CC50 for african green monkey Vero cells to MIC for Mycobacterium tuberculosis H37Rv. Type of data set: toxicity, cell-based. To be noted: read-out: Selectivity Index.
Data set [6] concerns Mycobacterium tuberculosis. Briefly: Ratio of isoniazid MIC to compound MIC for Mycobacterium tuberculosis H37Rv. Type of data set: functional.

`C=CCN(CC=C)C(=S)N/N=C(/C)c1ccccc1`: the MIC in data set [1] was 22.9 µM (≈ 6.25 µg/mL). Besides, the CC50 at 72 h in data set [2] came out at 229 µM.
The corresponding values for `O=[N+]([O-])c1ccccc1/C=N\NC(=S)N(Cc1ccccc1)Cc1ccccc1` are 3.85 µM (≈ 1.56 µg/mL) and less than 155 µM.
In turn, `C=CCN(CC=C)C(=S)N/N=C\c1ccccc1` displayed a minimum inhibitory concentration (MIC) in data set [1] of 48.2 µM (≈ 12.5 µg/mL).
Regarding `C/C(=N/NC(=S)N(Cc1ccccc1)Cc1ccccc1)c1ccccc1`, the lowest concentration to inhibit growth in data set [1] (MIC) was 16.7 µM (≈ 6.25 µg/mL). For the same compound, the CC50 at 72 h in data set [2] worked out at 167 µM.
The matching figures for `C/C(=N/NC(=S)N(Cc1ccccc1)Cc1ccccc1)c1ccc(F)cc1`: 7.99 µM (≈ 3.13 µg/mL) and 160 µM.
The corresponding values for `C=CCN(CC=C)C(=S)NN=C(c1ccccc1)c1ccccc1` are 9.33 µM (≈ 3.13 µg/mL) and 186 µM.
The matching figures for `C=CCN(CC=C)C(=S)N/N=C\c1ccc(Cl)cc1`: 5.3 µM (≈ 1.56 µg/mL) and 213 µM.
Compound `C=CCN(CC=C)C(=S)N/N=C\c1ccccc1C` gave an MIC in data set [1] of 22.9 µM (≈ 6.25 µg/mL). For the same compound, the CC50 at 72 h in data set [2] is greater than 229 µM.
In data set [1], `C=CCN(CC=C)C(=S)N/N=C\c1ccccc1[N+](=O)[O-]` yielded an MIC of 5.12 µM (≈ 1.56 µg/mL). The CC50 at 72 h in data set [2] stood at 205 µM.
In the case of `O=[N+]([O-])c1ccc(/C=N\NC(=S)N(Cc2ccccc2)Cc2ccccc2)o1`, the Ratio is on record as 9.4 in data set [3], 4.2 in data set [4] and 1.3 in data set [6]. The compound further had an MIC in data set [1] of 0.5 µM (≈ 0.197 µg/mL). Further, in data set [2], the CC50 at 72 h amounted to 158 µM. In addition, in data set [5], the selectivity ratio is greater than 316.
In data set [1], `C/C(=N/NC(=S)N(Cc1ccccc1)Cc1ccccc1)c1ccc(O)cc1` came in with an MIC of 16.1 µM (≈ 6.26 µg/mL). Besides, the CC50 at 72 h in data set [2] is 160 µM.
The compound `C=CCN(CC=C)C(=S)N/N=C(/C)c1ccc(N)cc1` yielded an MIC in data set [1] of 43.3 µM (≈ 12.5 µg/mL).
On to `S=C(NN=C(c1ccccc1)c1ccccc1)N(Cc1ccccc1)Cc1ccccc1`, for which, in data set [1], it took 3.58 µM (≈ 1.56 µg/mL) to inhibit growth (MIC). For the same compound, the CC50 at 72 h in data set [2] stood at 143 µM.
In data set [1], `Oc1ccccc1/C=N\NC(=S)N(Cc1ccccc1)Cc1ccccc1` displayed a minimum inhibitory concentration (MIC) of 8.33 µM (≈ 3.13 µg/mL). Further, in data set [2], the CC50 at 72 h is 166 µM.
The corresponding values for `CO[C@H]1/C=C/O[C@@]2(C)Oc3c(C)c(O)c4c(O)c(c(/C=N/N5CCN(C)CC5)c(O)c4c3C2=O)NC(=O)/C(C)=C\C=C\[C@H](C)[C@H](O)[C@@H](C)[C@@H](O)[C@@H](C)[C@H](OC(C)=O)[C@@H]1C` [RIFAMPIN] are 0.23 µM (≈ 0.189 µg/mL) and greater than 75.9 µM.
Take `C=CCN(CC=C)C(=S)N/N=C(/C)CC`: the MIC in data set [1] is 111 µM (≈ 25 µg/mL).
Turning to `S=C(N/N=C\c1ccccc1)N(Cc1ccccc1)Cc1ccccc1`, in data set [1], it took 17.4 µM (≈ 6.26 µg/mL) to inhibit growth (MIC). The CC50 at 72 h in data set [2] is 174 µM.
The matching figures for `C/C(=N/NC(=S)N(Cc1ccccc1)Cc1ccccc1)c1ccc([N+](=O)[O-])cc1`: 3.72 µM (≈ 1.56 µg/mL) and less than 149 µM.
The matching figures for `CC1COc2c(N3CCN(C)CC3)c(F)cc3c(=O)c(C(=O)O)cn1c23` (configuration not stated) [OFLOXACIN]: 2.13 µM (≈ 0.77 µg/mL) and greater than 155 µM.
The matching figures for `Cc1ccccc1/C=N\NC(=S)N(Cc1ccccc1)Cc1ccccc1`: 8.38 µM (≈ 3.13 µg/mL) and 167 µM.
`C=CCN(CC=C)C(=S)N/N=C\c1ccccc1O` had an MIC in data set [1] of 45.4 µM (≈ 12.5 µg/mL).
With `C=CCN(CC=C)C(=S)N/N=C\c1ccc([N+](=O)[O-])cc1`, inhibition of growth in data set [1] (MIC) required 2.56 µM (≈ 0.779 µg/mL). In addition, the CC50 at 72 h in data set [2] was less than 205 µM.
The matching figures for `C=CCN(CC=C)C(=S)N/N=C(/C)c1ccccc1O`: 21.6 µM (≈ 6.25 µg/mL) and 216 µM.
The matching figures for `C/C(=N/NC(=S)N(Cc1ccccc1)Cc1ccccc1)c1ccc(N)cc1`: 16.1 µM (≈ 6.25 µg/mL) and 161 µM.
The matching figures for `O=[N+]([O-])c1ccc(/C=N\NC(=S)N(Cc2ccccc2)Cc2ccccc2)cc1`: 0.98 µM (≈ 0.396 µg/mL) and less than 155 µM.
In the case of `CC[C@@H](CO)NCCN[C@@H](CC)CO` [ETHAMBUTOL], in data set [1], the MIC was 4.71 µM (≈ 0.962 µg/mL). The CC50 at 72 h in data set [2] is greater than 188 µM.
The corresponding values for `S=C(N/N=C\c1ccc(Cl)cc1)N(Cc1ccccc1)Cc1ccccc1` are 1.98 µM (≈ 0.78 µg/mL) and 159 µM.
The matching figures for `C=CCN(CC=C)C(=S)N/N=C(/C)c1ccc(O)cc1`: 21.6 µM (≈ 6.25 µg/mL) and 216 µM.
The compound `NNC(=O)c1ccncc1` [ISONIAZID] gave an MIC in data set [1] of 0.66 µM (≈ 0.0905 µg/mL). For the same compound, in data set [2], the CC50 at 72 h was greater than 456 µM.
The corresponding values for `C=CCN(CC=C)C(=S)N/N=C(/C)c1ccc([N+](=O)[O-])cc1` are 9.83 µM (≈ 3.13 µg/mL) and less than 196 µM.
In data set [1], `CC/C(C)=N\NC(=S)N(Cc1ccccc1)Cc1ccccc1` displayed an MIC of 76.8 µM (≈ 25 µg/mL).
Regarding `C=CCN(CC=C)C(=S)N/N=C(/C)c1ccc(F)cc1`, the MIC in data set [1] came out at 10.7 µM (≈ 3.13 µg/mL). Besides, the CC50 at 72 h in data set [2] turned out to be 214 µM.
The matching figures for `C/C(=N/NC(=S)N(Cc1ccccc1)Cc1ccccc1)c1ccccc1O`: 8.03 µM (≈ 3.13 µg/mL) and 160 µM.
Take `C=CCN(CC=C)C(=S)N/N=C\c1ccc([N+](=O)[O-])o1`: in data set [1], the MIC was 2.65 µM (≈ 0.78 µg/mL). Besides, in data set [2], the CC50 at 72 h is less than 212 µM.

What is called MIC is the lowest concentration that inhibits growth of the organism. What is called CC50 is the concentration at which the toxic effect on the cells reaches its halfway point.
